Test results taken from patent publication US6579693B1, “Genetically engineered yeast strains” (Aventis Pharma S.A., priority 1995, dated 2003).

Key:
[1] = system: W(Ghr, ΔB) clones; test: resistance of yeast clones to ketoconazole; format: cell-based, S. cerevisiae; settings: three W(Ghr, ΔB) clones, human reductase under GAPDH promoter
Method: The second selection: the resistance of the W(Ghr, ΔB) clones to ketoconazole was evaluated (Patent No. WO94/01564) in order to verify the activity of the human reductase expressed under the control of the GAPDH promoter. Three different clones are resistant to 20 mg of ketoconazole/ml, while the W(hR) strain, in which the human reductase is expressed under the control of the GAL10-CYC1 promoter, is only resistant to from 1 to 5 mg/ml under the same conditions.

[2] = target: T1, P450 cytochrome 1A1 (Homo sapiens, UniProt P04798); test: EROD activity test on microsomes (O-deethylation of 7-ethoxyresorufin); format: biochemical; settings: microsomes of strain W(R, LHb5), rabbit cytochrome b5 added
T1 construct: made in house; host or cells: Saccharomyces cerevisiae W303-derived strains, e.g. W(R, LHb5); microsomal fractions
T1 sequence (P04798 1-512): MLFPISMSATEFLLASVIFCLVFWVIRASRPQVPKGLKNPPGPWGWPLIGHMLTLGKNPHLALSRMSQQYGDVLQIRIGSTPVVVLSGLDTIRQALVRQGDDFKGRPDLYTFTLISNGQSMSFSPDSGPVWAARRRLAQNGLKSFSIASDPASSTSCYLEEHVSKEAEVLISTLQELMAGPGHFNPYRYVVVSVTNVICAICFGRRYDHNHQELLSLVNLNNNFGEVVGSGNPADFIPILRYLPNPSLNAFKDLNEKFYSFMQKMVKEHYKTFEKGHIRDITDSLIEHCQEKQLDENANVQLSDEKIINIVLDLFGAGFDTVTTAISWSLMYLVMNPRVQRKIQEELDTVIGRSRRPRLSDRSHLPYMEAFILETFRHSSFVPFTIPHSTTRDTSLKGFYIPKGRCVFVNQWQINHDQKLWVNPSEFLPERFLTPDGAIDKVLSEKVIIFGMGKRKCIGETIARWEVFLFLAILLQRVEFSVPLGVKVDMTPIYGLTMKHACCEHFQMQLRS
Method: The P450 cytochrome 1A1 catalyses the O-deethylation of 7-ethoxyresorufin. The product of the reaction, i.e. resorufin (7-hydroxyphenoxazine), fluoresces at 586 nm after excitation at 530 nm. The quantity of resorufin formed per unit time corresponds to the rate of resorufin accumulation.
The incubation mixture comprises:
2 μl of a microsomal suspension (between 20 and 50 μg of microsomal protein) in 1 ml of pH 7.4 TE buffer containing 50 μM NADPH and 2.5 μM 7-ethoxyresorufin. In order to determin the effect of rabbit cytochrome b5 on catalytic efficacy, the microsomal fractions are subjected to prior incubation in the cold in the presence of an excess of purified cytochrome.

Question: How did the “ketoconazole concentration to which the clones are resistant” value [1] turn out when `CC(=O)N1CCN(c2ccc(OCC3COC(Cn4ccnc4)(c4ccc(Cl)cc4Cl)O3)cc2)CC1` (centres unmarked) [ketoconazole] was run?
Answer: 20 mg/mL

B1: rabbit cytochrome b5: purified rabbit cytochrome b5 added in excess to microsomal fractions (protein, UniProt P00169 2-134, looked up)
Cytochrome b5: AAQSDKDVKYYTLEEIKKHNHSKSTWLILHHKVYDLTKFLEEHPGGEEVLREQAGGDATENFEDVGHSTDARELSKTFIIGELHPDDRSKLSKPMETLITTVDSNSSWWTNWVIPAISALIVALMYRLYMADD
Question: Which turnover [2] does the source give for B1 here?
Answer: 27 pmol of metabolite/pmol of cytochrome P450 per min
